According to publication PMC12786355 (Biochimica et biophysica acta. Proteins and proteomics, 2024):

How the values were obtained:
[1] = molecular target: T1, MCR-C (C-terminal domain of malonyl-CoA reductase) (Chloroflexus aurantiacus, UniProt A9WIU3); experiment: NADPH absorbance at […] nm, product inhibition; assay type: biochemical
[2] = molecular target: T1, MCR-C (C-terminal domain of malonyl-CoA reductase); experiment: NADPH absorbance at […] nm, dead-end inhibition; assay type: biochemical

Question: How did the Ki [1] turn out when `NC(=O)c1ccc[n+]([C@@H]2O[C@H](COP(=O)(O)OP(=O)(O)OC[C@H]3O[C@@H](n4cnc5c(N)ncnc54)[C@H](OP(=O)(O)O)[C@@H]3O)[C@@H](O)[C@H]2O)c1` [NADP^+] was run?
Answer: 104 ± 15 µM

Question: For `CC(C)(COP(=O)(O)OP(=O)(O)OC[C@H]1O[C@@H](n2cnc3c(N)ncnc32)[C@H](O)[C@@H]1OP(=O)(O)O)[C@@H](O)C(=O)NCCC(=O)NCCS` [CoA], which Ki [1] is on record?
Answer: 238 ± 14 µM

Question: For `O=CC(=O)O` [glyoxylic acid], which Ki [2] is on record?
Answer: 6 ± 0.8 µM
